Measurements taken from article PMC7821958, “Synthesis, in vitro enzyme activity and molecular docking studies of new benzylamine-sulfonamide derivatives as selective MAO-B inhibitors” (Journal of Enzyme Inhibition and Medicinal Chemistry, 2020).
“Also recorded” adds a separate entry of the source.

Columns and labels:
MAO-B = tested on: MAO-B; parameters: method as in PMID 27028260; details: read-out: IC50 against MAO-B; cited from earlier work
hMAO-A = target: T1, hMAO-A (Homo sapiens, UniProt P21397); test: MAO-A inhibition assay, fluorometric (Amplex Red / horseradish peroxidase-coupled); assay type: biochemical; details: read-out: MAO-A % Inhibition; for inhibition at 1000 µM: 10^−3 M; for inhibition at 100 µM: 10^−4 M
T1 construct: purchased Sigma-Aldrich (Steinheim, Germany)
T1 sequence (P21397 1-527): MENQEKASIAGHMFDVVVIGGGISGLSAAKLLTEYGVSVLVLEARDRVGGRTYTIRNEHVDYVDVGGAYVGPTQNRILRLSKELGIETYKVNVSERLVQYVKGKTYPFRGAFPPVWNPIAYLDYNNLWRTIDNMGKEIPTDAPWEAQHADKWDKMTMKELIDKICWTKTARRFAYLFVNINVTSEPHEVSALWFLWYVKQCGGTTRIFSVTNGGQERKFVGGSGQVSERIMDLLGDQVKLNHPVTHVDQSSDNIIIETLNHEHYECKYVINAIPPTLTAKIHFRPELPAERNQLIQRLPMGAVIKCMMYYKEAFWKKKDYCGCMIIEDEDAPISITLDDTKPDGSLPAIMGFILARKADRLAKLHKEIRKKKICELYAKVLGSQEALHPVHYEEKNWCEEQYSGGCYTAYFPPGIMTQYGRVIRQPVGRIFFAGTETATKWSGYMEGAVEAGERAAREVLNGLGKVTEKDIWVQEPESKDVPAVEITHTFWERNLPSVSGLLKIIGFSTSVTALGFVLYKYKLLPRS
Protocol: A Biotek Precision XS robotic system (USA) was used for all pipetting operations. Measurements were performed with the use of BioTek-Synergy H1 microplate reader (USA) based upon the fluorescence generated (excitation, 535 nm, emission, 587 nm) over a 30 min period, in which the fluorescence increased linearly.
Enzymatic assay was performed according to recent method pronounced by our research group[17]^,[20–22]. Control, blank and all concentrations of obtained compounds were tested in quadruplicate and inhibition percent was calculated with following equation: % Inhibition=(FCt2 − FCt1) − (FIt2 − FIt1)/FCt2 − FCt1 × 100
FCt2: Fluorescence of a control well measured at t2 time, FCt1: Fluorescence of a control well measured at […]: Fluorescence of an inhibitor well measured at t2 time, FIt1: Fluorescence of an inhibitor well measured at t1 time,
The IC50 values were calculated using a dose-response curve achieved by plotting the percentage inhibition versus the log concentration using GraphPad ‘PRISM’ software (version 5.0).
All the obtained benzylamine-sulphonamide derivatives 4a–4u were investigated for their inhibitory activity against MAO isoforms using a previously described in vitro fluorometric method, which is based on the detection of H2O2 in a horseradish peroxidase-coupled reaction using 10-acetyl-3,7-dihydroxyphenoxazine (Amplex Red reagent)[17]^,[20–22].
The assay was carried out in two steps. […].

hMAO-B [1] = target: T2, hMAO-B (Homo sapiens, UniProt P27338); test: Enzyme kinetic studies (Lineweaver-Burk plots, secondary plot); assay type: biochemical; details: for type of inhibition: Lineweaver-Burk plot; for Ki: substrate tyramine, secondary plot, read-out: Ki, steady-state inhibition constant
T2 construct: purchased Sigma-Aldrich (Steinheim, Germany)
T2 sequence (P27338 1-520): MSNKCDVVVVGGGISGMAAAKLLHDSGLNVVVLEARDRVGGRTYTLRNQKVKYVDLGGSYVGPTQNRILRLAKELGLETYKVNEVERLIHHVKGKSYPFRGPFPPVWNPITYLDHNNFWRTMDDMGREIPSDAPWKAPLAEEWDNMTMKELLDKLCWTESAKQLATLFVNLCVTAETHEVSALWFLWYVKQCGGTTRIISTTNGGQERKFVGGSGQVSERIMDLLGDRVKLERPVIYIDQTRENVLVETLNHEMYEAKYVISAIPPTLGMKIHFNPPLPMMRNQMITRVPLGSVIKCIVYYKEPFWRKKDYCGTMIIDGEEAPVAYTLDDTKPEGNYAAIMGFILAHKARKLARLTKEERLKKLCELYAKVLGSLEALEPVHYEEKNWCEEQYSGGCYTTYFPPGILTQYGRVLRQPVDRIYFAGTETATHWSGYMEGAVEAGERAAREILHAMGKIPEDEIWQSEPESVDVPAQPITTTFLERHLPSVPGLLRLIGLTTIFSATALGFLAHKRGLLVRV
Protocol: The same materials were used in the MAO inhibition assay. […] All processes were evaluated in quadruplicate. The results were analysed as Lineweaver–Burk plots by means of Microsoft Office Excel 2013. The […] of the Lineweaver–Burk plots were replotted versus the inhibitor concentration, and the Ki values were determined from the x-axis intercept as −Ki.
Enzyme kinetics studies were performed to determine the mechanism of hMAO-B inhibition by using a procedure similar to that of the MAO inhibition assay. […] In order to estimate the type of inhibition of these compounds, linear Lineweaver-Burk graphs were used. Substrate velocity curves in the absence and presence of compounds 4i and 4t were recorded. […] In each case, the initial velocity measurements were obtained at different substrate (tyramine) concentrations ranging from 20 μM to 0.625 μM.
The type of inhibition can be determined as either reversible or irreversible by using the Lineweaver-Burk plots. The reversible inhibition type can be classified as mixed-type, uncompetitive, competitive, or non-competitive[17]^,[20–22]. […] Competitive inhibition is seen if the lines intersect on the y-axis, and the slopes and x-intercepts are different. On the contrary, non-competitive inhibition has the opposite result: the plotted lines have the same x-intercept but there are diverse slopes and y-intercepts.

hMAO-B [2] = target: T2, hMAO-B; test: MAO-B inhibition assay, fluorometric (Amplex Red / horseradish peroxidase-coupled); assay type: biochemical; details: for inhibition at 1000 µM: 10^−3 M; for inhibition at 100 µM: 10^−4 M; for inhibition at 10 µM: 10^−5 M; for inhibition at 1 µM: 10^−6 M; for inhibition at 0.1 µM: 10^−7 M; for inhibition at 0.01 µM: 10^−8 M; for inhibition at 0.001 µM: 10^−9 M; for IC50: Table 2, mean ± SD, read-out: IC50 against MAO-B;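 for all read-outs here: fluorescence read at Ex 535 nm and Em 587 nm over 30 min, linear phase, inhibition relative to uninhibited control wells, IC50 from log concentration–response curves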
Text: FCt2: Fluorescence of a control well measured at t2 time, FCt1: Fluorescence of a control well measured at t2 time, FIt2: Fluorescence of an inhibitor well measured at t2 time, FIt1: Fluorescence of an inhibitor well measured at t1 time,

[3] = tested on: NIH/3T3 mouse embryonic fibroblast cell line; test: Cytotoxicity MTT assay; assay type: cell-based; details: NIH3T3 cells
Protocol: (§1) The NIH/3T3 mouse embryonic fibroblast cell line (ATCC®CRL-1658 ™, London, UK) was used for cytotoxicity assays. The incubation period of NIH/3T3 cells was based on the supplier's recommendation. NIH/3T3 cells were seeded at 1 × 10^4 cells into each well of 96-well plates. MTT assay was carried out in accordance with the standards previously described manner[23]^,[24]. The compounds were tested between 1 and 0.000316 mM concentrations.

Cytotoxicity MTT assay = assay type: cell-based, mouse; details: mouse, NIH/3T3 mouse embryonic fibroblast cells, read-out: IC50 NIH/3T3 cell line
Protocol: as §1

Row | inhibition at 1000 µM (hMAO-A) [%] | inhibition at 100 µM (hMAO-A) [%] | type of inhibition (hMAO-B [1]) | Ki (hMAO-B [1]) [µM] | inhibition at 1000 µM (hMAO-B [2]) [%] | inhibition at 100 µM (hMAO-B [2]) [%] | inhibition at 10 µM (hMAO-B [2]) [%] | inhibition at 1 µM (hMAO-B [2]) [%] | inhibition at 0.1 µM (hMAO-B [2]) [%] | inhibition at 0.01 µM (hMAO-B [2]) [%] | inhibition at 0.001 µM (hMAO-B [2]) [%] | IC50 (hMAO-B [2]) [µM] | melting point [°C] | Structure (SMILES) | IC50 (MAO-B) [µM] | cytotoxicity (in words) [3] | IC50 (Cytotoxicity MTT assay) [µM]
1 | – | – | – | – | – | – | – | – | – | – | – | – | – | O=C(CSc1nc2cc(Cl)ccc2s1)N(Cc1cccc([N+](=O)[O-])c1)c1ccc(F)cc1 [BB-4h, 2-((5-chlorobenzothiazol-2-yl)thio)-N-(4-fluorophenyl)-N-(3-nitrobenzyl)acetamide] | 2.95 ± 0.09 | – | –
2 | 52.6 ± 0.987 | 38.3 ± 0.503 | reversible and non-competitive | 0.055 | 92.6 ± 1.13 | 88.6 ± 1.2 | 80.5 ± 1.16 | 74.7 ± 1.01 | 60.8 ± 1.16 | 36.1 ± 0.862 | 21 ± 0.594 | 0.065 ± 0.002 | 109 to 111 | Cc1ccc(CN(C(=O)CSc2nc3cc(Cl)ccc3s2)c2ccc(S(N)(=O)=O)cc2)cc1 [Compound 4t, 2-((5-Chlorobenzothiazol-2-yl)thio)-N-(4-methylbenzyl)-N-(4-sulfamoylphenyl)acetamide] | – | non-toxic; also recorded: non-cytotoxic at their effective concentrations | > 1000
3 | 56.3 ± 0.996 | 40.5 ± 0.782 | reversible and non-competitive | 0.036 | 94.9 ± 1.41 | 91.8 ± 1.26 | 78.6 ± 1.11 | 72.5 ± 1.11 | 65.2 ± 0.985 | 46.5 ± 0.892 | 24.5 ± 0.627 | 0.041 ± 0.001 | 114 to 116 | NS(=O)(=O)c1ccc(N(Cc2ccccc2)C(=O)CSc2nc3cc(Cl)ccc3s2)cc1 [Compound 4i, N-Benzyl-2-((5-chlorobenzothiazol-2-yl)thio)-N-(4-sulfamoylphenyl)acetamide] | – | non-toxic; also recorded: non-cytotoxic at their effective concentrations | > 1000
